Experimental data reported in patent US20230227547A1, “ANTIBODY-PAYLOAD CONJUGATES WITH ENHANCED DELIVERY DOMAIN AND USES THEREOF” (IPROGEN BIOTECH INC., priority 2019, published 2023).

Key:
[1] = test system: T47D cells; experiment: Anti-HER2 mAb delivery efficiency using LL37-derived peptide constructs; assay type: cell-based, human; conditions: peptide conjugated to anti-HER2 mAb light chain, 100 nM Ab, Z-GFP (PEP#6, 35-43) or Goat anti-human IgG-AlexaFluor 488 (PEP#6, 47-94) fluorescence microscopy
Procedure: LL37 and LL37-derived peptides were produced synthetically with two additional N-terminal glycine residues (e.g. as shown in SEQ ID NO:2 compared to SEQ ID NO: 1) to enable the sortase reaction. The LL37-derived peptides (PEP#35 to #43, SEQ ID NOs: 13-21) were all dissolved at 10 mg/ml in phosphate buffer saline (PBS) at room temperature, sterile-filtered, and stored at -20° C. freezer. PEP#48 (SEQ ID: 74), PEP#49 (SEQ ID No: 75), and PEP#60 (SEQ ID NO: 105) were dissolved in 20% (v/v) acetonitrile in PBS. PEP#47 (SEQ ID NO: 96), PEP#86 (SEQ ID NO: 78), PEP#98 (SEQ ID NO: 79), PEP#99 (SEQ ID NO: 80), PEP#102 (SEQ ID NO: 82), and PEP#104 (SEQ ID NO: 84) were dissolved in DMSO. PEP#50 (SEQ ID No: 76), PEP#51 (SEQ ID No: 97), PEP#55 (SEQ ID No: 77), PEP#58 (SEQ ID No: 103), PEP#59 (SEQ ID No: 104), PEP#61 (SEQ ID No: 106), PEP#62 (SEQ ID No: 107), PEP#63 (SEQ ID No: 108), PEP#64 (SEQ ID No: 109), PEP#66 (SEQ ID No: 110), and PEP#94 (SEQ ID No: 35) were all dissolved in PBS. […] The reaction was incubated inside a 37° C. incubator for 16 hours, and then EDTA (pH 7.5) was added to 10 mM in the reaction mixture to chelate calcium and stop the reaction.
Delivery assay: The following delivery assay method was used on the anti-HER2 mAbs conjugated to the PEP#6, #35, #36, #37, #38, #39, #40, #41, #42, and #43 described in Table 7. […] The plates were then removed from the incubator, and the culturing media was removed from the adherent cells. The adherent cells were washed gently with an equal volume of ice-cold PBS. Then, the PBS wash was replaced 250 µl of fresh PBS for fluorescence microscope imaging.
At the end of incubation, the adherent target cells were washed twice with ice-cold PBS, fixed with 2% (w/v) formaldehyde in PBS at room temperature for 15 minutes, and washed twice with PBS at room temperature. The fixed adherent target cells were then permeabilized with 0.05% (v/v) Tween-20 in PBS at room temperature for 15 minutes. The permeabilized cells were then incubated with 5% (v/v) FBS, 0.05% (v/v) Tween-20 in PBS at 37 degree Celsius incubator for 30 minutes. The secondary antibody, Goat anti-human IgG-AlexaFluor 488, was added to 5 ug/ml in 5% (v/v) FBS, 0.05% (v/v) Tween-20 in PBS, and incubated with the treated target cells at 37 degree Celsius incubator for 30 minutes. After incubation, the labelled cells were washed twice with PBS, and stored in storage buffer [5% (v/v) FBS in PBS] at 4 degree Celsius until fluorescence microscope imaging. The delivery of mAb and mAb-LL37-derived peptides were determined qualitatively by estimating the green fluorescence intensity emitted from the AlexFluor488-labelled secondary antibody bound to mAb or mAb-LL37-derived peptides.

[2] = test system: T47D cells; experiment: Cell viability assay with XTT, T47D; assay type: cell-based, human; conditions: XTT (Taxol ADCs: 3 hours)
Procedure: The cell assay was done by treating/incubating the T47D cells with antibody drug conjugates for 3 hours in the 37 degree C tissue culture incubator. After treatment, cell viability was determined by XTT assay as described above.
(§1) After treatment, cell viability was determined by XTT assay as described above.

[3] = test system: LnCap; experiment: Delivery assay, Goat anti-human IgG-AlexaFluor 488 fluorescence microscopy, LnCap; assay type: cell-based; design: key to Delivery efficiency of mAb (i.e., mAb): +++: Strong Alexa Fluor 488 (cyan/green) fluorescent intensity; ++: Medium level of Alexa Fluor 488 (cyan/green) fluorescent intensity; +: Weak, but noticeable Alexa Fluor 488 (cyan/green) fluorescent intensity; -: No signal; conditions: Target cell LnCap; for Delivery efficiency of mAb (i.e., mAb): 100 nM, 3 hours; for Delivery enhancement: mAb-LL37 vs mAb
Procedure: Delivery assay. […] The culturing media containing the unbound antibodies were removed, and the MDA-MB-468 cells were washed with PBS. The adherent cells were treated with trypsin at 37 degree C for 1-2 minutes, neutralized in FACS buffer (2% v/v FBS, 2 mM EDTA, 0.05% w/v sodium azide in PBS), and transferred to FACS tubes on ice. The delivery of antibodies to cells was quantitated by measuring the red fluorescence intensity (i.e., PE-Texas Red color channel in the FACS detector) emitted fromZ-RFP bound to antibody. […] At the end of incubation, the adherent target cells were washed twice with ice-cold PBS, fixed with 2% (w/v) formaldehyde in PBS at room temperature for 15 minutes, and washed twice with PBS at room temperature. The fixed adherent target cells were then permeabilized with 0.05% (v/v) Tween-20 in PBS at room temperature for 15 minutes. The permeabilized cells were then incubated with 5% (v/v) FBS, 0.05% (v/v) Tween-20 in PBS at 37 degree Celsius incubator for 30 minutes. The secondary antibody, Goat anti-human IgG-AlexaFluor 488, was added to 5 ug/ml in 5% (v/v) FBS, 0.05% (v/v) Tween-20 in PBS, and incubated with the treated target cells at 37 degree Celsius incubator for 30 minutes. After incubation, the labelled cells were washed twice with PBS, and stored in storage buffer [5% (v/v) FBS in PBS] at 4 degree Celsius until fluorescence microscope imaging. The delivery of mAb and mAb-LL37 were determined qualitatively by estimating the green fluorescence intensity emitted from the AlexFluor488-labelled secondary antibody bound to mAb or mAb-LL37. […] However, Ramos [NT] No. ATCC CRL-1596, lot#70016960) was grown in suspension culture (i.e., in contrast to adherent cells), and the modification to the methods involves simply harvesting cells from the shaking culture flask for incubation with antibodies (or LL37-linked antibodies), and frequently pelleting down the target cells in the V-bottom 96-well polypropylene plate for downstream processes of PBS washing, fixing, permeabilizing, blocking, and the secondary antibody labelling. The secondary anti-human IgG-AlexaFluor488 labelled target cells were washed and resuspended in PBS, and transferred to the clear polystyrene 48-well plates for fluorescence microscope imaging.

[4] = test system: OVCAR3 cells; experiment: Cell viability assay with XTT, OVCAR3; assay type: cell-based, human; conditions: 72 hours (FIG. 10: 24 hours) treatment
Procedure: Cell viability assay with XTT. On day 1, cells (OVCAR3) were seeded at about 0.02 to 0.025 million cells per ml concentration and incubated overnight in the 37 degree Celsius incubator. […] One set was incubated for 24 hours, and another set for 72 hours. On day 3, the set with 24 hours, the treatment were removed, and replaced with fresh growth media, and continued incubation for the next 48 hours (for the total of 72 hours). On day 5, the set with both 24 hours and 72 hours treatments were analyzed. […] XTT and PMS solutions were freshly prepared immediately before the assay, and were used right away. XTT/PMS were added to the treated cells to start the XTT reaction. […] Spectral absorbance was measured at 475 nm (XTT) and 660 nm (background), and viability calculated from the spectral absorbance difference at 475 nm and 660 nm.
The cell assay was done by treating/incubating the OVCAR3 cells with antibody drug conjugates for 3 hours in the 37 degree C tissue culture incubator. After treatment, cell viability was determined by XTT assay as described above.
as §1
Cell viability assay was carried out with XTT as as described above.
(§2) Cell viability assay with XTT. […] After treatment, cell viability was determined by XTT assay as described above.

[5] = test system: RT4V6 cells; experiment: Cell viability assay with XTT, RT4V6; assay type: cell-based, human; conditions: 72 hours treatment
Procedure: Cell viability assay with XTT. On day 1, cells (RT4V6, Neuro2A) were seeded at about 0.02 to 0.025 million cells per ml concentration and incubated overnight in the 37° C. incubator. […] XTT and PMS solutions were freshly prepared immediately before the assay, and were used right away. XTT/PMS were added to the treated cells to start the XTT reaction. […] Spectral absorbance was measured at 475 nm (XTT) and 660 nm (background), and viability calculated from the spectral absorbance difference at 475 nm and 660 nm.
Cell assay was done by treating/incubating the RT4V6 cells with antibody drug conjugates for 72 hours in the 37 degree C tissue culture incubator. After treatment, cell viability was determined by XTT assay as described above.
The cell assay was done by treating/incubating the RT4V6 cells with antibody drug conjugates for 72 hours in the 37 degree C tissue culture incubator. After treatment, cell viability was determined by XTT assay as described above.
as §1, §2

[6] = test system: CD20-positive RL cells; experiment: Delivery assay, Z-RFP FACS, RL cells; assay type: cell-based, human; conditions: 0.5 nM, 5 nM, 50 nM; 30 minutes
Procedure: For FIG. 30 Panel D, Ofatumumab-LL37 was made from Ofatumumab (SEQ ID NOs: 40 and 41) in a sortase-catalyzed reaction to GG-LL37 peptide (SEQ ID NO: 2), and purified on Protein A chromatography. For cell delivery assay, Ofatumumab/Ofatumumab-LL37 and equimolar equimolar number of Z-RFP were added to RL cells at described final concentration (i.e., 0.5 nM, 5 nM, and 50 nM) and incubated for 30 minutes. The liquid suspension culture was gently spun in a microcentrifuge at 2000 rpm for 4 minutes, and the clear supernatant was removed, and the cell pellet was washed in PBS and resuspended in FACS buffer (1XPBS, 2% FBS, 1 mM EDTA, 0.02% sodium azide) for analysis by FACS (Texas Red channel).

IVQRIKDFLRNLVPRTES [PEP#38]
Delivery efficiency [1]: ++ (Solid enhancement in delivery, but at lower efficiency than LL37) | killing of T47D / cell viability (in words) [2]: enhanced the anti-HER2 mAb-MMAE drug conjugate to kill T47D cells

EKIGKEFKRIVQRIKDFLRN [PEP#63]
Delivery efficiency [1]: +

Citatuzumab [Anti-EpCAM, Citatuzumab]
Delivery efficiency of mAb (i.e., mAb) [3]: ++ | Delivery enhancement [3]: YES

EFKRIVQRIKDFLRNLVPRT [PEP#64]
Delivery efficiency [1]: +

KEFKRIVQRIKDFLRGGGGSRLFDKIRQVIRKFEKG [PEP#55]
killing of OVCAR3 / cell viability (in words) [4]: strongly enhance ADC killing | killing of RT4V6 / cell viability (in words) [5]: strongly enhance ADC killing | Delivery efficiency [1]: +++ (Same as LL37)

Ofatumumab-LL37
targeted delivery (in words) [6]: more efficient than anti-CD20 mAb (i.e., Ofatumumab) at targeted delivery

IGKEFKRIVQRI [PEP#40]
Delivery efficiency [1]: +

Labetuzumab [Anti-CEACAM5, Labetuzumab]
Delivery efficiency of mAb (i.e., mAb) [3]: + | Delivery enhancement [3]: YES | Delivery enhancement ([3]; listed as labetuzumab): significantly increases the delivery

Anti-PSMA, hj591: Anti-PSMA mAb, SEQ ID NOs: 66 and 68
Delivery efficiency of mAb (i.e., mAb) [3]: ++ | Delivery enhancement [3]: YES | Delivery enhancement ([3]; listed as hj591): greatly enhances the delivery

KSKEKIGKEFKRIVQ [PEP#42]
Delivery efficiency [1]: +

IGKEFKRIVQRIKDFLRNLVPRTES [PEP#36]
Delivery efficiency [1]: ++ (Solid enhancement in delivery, but at lower efficiency than LL37) | killing of T47D / cell viability (in words) [2]: enhanced the anti-HER2 mAb-MMAE drug conjugate to kill T47D cells

LLGDFFRKSKEKIGKEFKRIVQRIK [PEP#35]
Delivery efficiency [1]: +
